In EPA's CvTdb concentration-time database:

Tests used:
Rat [1] = assay: concentration in heart after dosing; settings: dosed: Bis 2-Chloroethoxy Methane, 20 mg/kg, iv
Rat [2] = assay: concentration in liver after dosing; settings: dosed: Bis 2-Chloroethoxy Methane, 20 mg/kg, iv, F344
Rat [3] = assay: concentration in heart after dosing; settings: 5 h; dosed: Bis 2-Chloroethoxy Methane; 20 mg/kg; iv; Female; F344
Rat [4] = assay: concentration in plasma after dosing; settings: dosed: Bis 2-Chloroethoxy Methane, iv
Rat [5] = assay: concentration in thymus after dosing; settings: dosed: Bis 2-Chloroethoxy Methane, 20 mg/kg, iv
Rat [6] = assay: concentration in plasma after dosing; settings: 4 h; dosed: Bis 2-Chloroethoxy Methane; 20 mg/kg; iv; Female; F344
Rat [7] = assay: concentration in plasma after dosing; settings: 40 min; dosed: Bis 2-Chloroethoxy Methane; 20 mg/kg; iv; Female; F344
Rat [8] = assay: concentration in thymus after dosing; settings: 3 h; dosed: Bis 2-Chloroethoxy Methane; 20 mg/kg; iv; Male; F344

ClCCOCOCCCl [Bis 2-Chloroethoxy Methane]
Settings | concentration in heart, Rat [1] [ng/g] | concentration in thymus, Rat [5] [ng/g]
1 h, Female, F344 | 1530 | 2600
1 h, Male, F344 | 1400 | 3100
2 h, Female, F344 | 338 | 712
2 h, Male, F344 | 466 | 783
3 h, Female, F344 | 123 | 199
3 h, Male, F344 | 179 | 305
4 h, Female, F344 | 53.5 | 52.4
4 h, Male, F344 | 57.5 | 72.9
5 h, Female, F344 | 38.7 | 62.4
5 h, Male, F344 | 47.8 | 77.9
6 h, Female, F344 | 31.7 | 48.8
6 h, Male, F344 | 31.5 | 29.6
7 h, Female, F344 | – | 26.6
7 h, Male, F344 | 21.1 | 36
8 h, Female, F344 | – | 16.4
8 h, Female, Harlan Sprague-Dawley | 13.3 | 18.1
10 min, Female, F344 | 11300 | 33300
10 min, Male, F344 | 12200 | 66700
20 min, Female, F344 | 6050 | 22300
20 min, Male, F344 | 6780 | 13900
40 min, Female, F344 | 4450 | 12400
40 min, Male, F344 | 7060 | 7360

concentration in liver [ng/g], Rat [2]
Settings | 1 h | 2 h | 3 h | 4 h | 5 h | 6 h | 10 min | 20 min | 40 min
Female | 526 | 65.2 | – | – | – | – | 1570 | 2310 | 662
Male | 1620 | 640 | 121 | 66.5 | 31.1 | 26.2 | 3090 | 2860 | 4290

Settings | concentration in heart [ng/g] | concentration in plasma [ng/mL] | concentration in thymus [ng/g]
Rat [3] | 27.4 | – | –
Rat [6] | – | 63.4 | –
Rat [7] | – | 1720 | –
Rat [8] | – | – | 134

concentration in plasma [ng/mL], Rat [4]
Settings | Female | Male
1 h, 20 mg/kg, F344 | 1380 | 1400
1 h, 40 mg/kg, Harlan Sprague Dawley | – | 3850
2 h, 20 mg/kg, F344 | 202 | 336
2 h, 40 mg/kg, Harlan Sprague Dawley | – | 648
3 h, 20 mg/kg, F344 | 82.8 | 119
3 h, 40 mg/kg, Harlan Sprague Dawley | – | 333
4 h, 20 mg/kg, F344 | 79 | 117
4 h, 40 mg/kg, Harlan Sprague Dawley | – | 139
5 h, 20 mg/kg, F344 | 25.4 | 32.6
5.333 h, 40 mg/kg, Harlan Sprague Dawley | – | 74.6
6 h, 20 mg/kg, F344 | 10.2 | 28
6.667 h, 40 mg/kg, Harlan Sprague Dawley | – | 45.9
7 h, 20 mg/kg, F344 | – | 16
8 h, 20 mg/kg, Harlan Sprague-Dawley | 11.2 | –
8 h, 40 mg/kg, Harlan Sprague Dawley | – | 15.7
10 min, 20 mg/kg, F344 | 9580 | 10400
10 min, 40 mg/kg, Harlan Sprague Dawley | – | 23400
20 min, 20 mg/kg, F344 | 5400 | 4840
20 min, 40 mg/kg, Harlan Sprague Dawley | – | 10200
40 min, 20 mg/kg, F344 | 2110 | 2640
40 min, 40 mg/kg, Harlan Sprague Dawley | – | 7610
